# ChEMBL document CHEMBL5724914, “Linking interpersonal differences in gut microbiota composition and drug biotransformation activity” (2024)
# Experiment: The drug is tested on Z-008 corresponding to metagenome with ENA study accession number: PRJEB37062 and ENA sample accession number: ERS12561808 for biotransformation under anaerobic condition. The drug concentrations were measured over 9 timepoints collected between 0 and 24 hours of incubation by liquid-chromatography-coupled mass spectrometry (LC–MS)
# Details: 2 µM
# Also: call rule not given here.
row,Bacterial Biotransformation,SMILES
1,Compound NOT metabolized,COc1cc2nc(N(C)CCCNC(=O)C3CCCO3)nc(N)c2cc1OC (stereo not given) [ALFUZOSIN]
2,Compound NOT metabolized,CC(C)NCC(O)COc1ccc(CCOCC2CC2)cc1 (stereo not given) [BETAXOLOL]
3,Compound NOT metabolized,CS(=O)(=O)O.OC(CCN1CCCCC1)(c1ccccc1)c1ccccc1 [PRIDINOL METHANESULFONATE]
4,Compound NOT metabolized,CC(CN1c2ccccc2Sc2ccccc21)N(C)C (stereo not given) [PROMETHAZINE]

# Experiment: (§1) The drug is tested on Z-016 corresponding to mouse gut metagenome with ENA study accession number: PRJEB37062 and ENA sample accession number: ERS12561815 for biotransformation under anaerobic condition. The drug concentrations were measured over 9 timepoints collected between 0 and 24 hours of incubation by liquid-chromatography-coupled mass spectrometry (LC–MS)
# Details: 2 µM
row,Bacterial Biotransformation,SMILES
1,Compound NOT metabolized,COc1cc2nc(N(C)CCCNC(=O)C3CCCO3)nc(N)c2cc1OC (stereo not given) [ALFUZOSIN]
2,Compound NOT metabolized,CC(C)NCC(O)COc1ccc(CCOCC2CC2)cc1 (stereo not given) [BETAXOLOL]
3,Compound NOT metabolized,CS(=O)(=O)O.OC(CCN1CCCCC1)(c1ccccc1)c1ccccc1 [PRIDINOL METHANESULFONATE]
4,Compound NOT metabolized,CC(CN1c2ccccc2Sc2ccccc21)N(C)C (stereo not given) [PROMETHAZINE]

# Experiment: as §1, with “WLS-310” for “Z-016”, “human” for “mouse”, “ERS12561785” for “ERS12561815”
# Details: 2 µM
row,Bacterial Biotransformation,SMILES
1,Compound metabolized,COc1cc2nc(N(C)CCCNC(=O)C3CCCO3)nc(N)c2cc1OC (stereo not given) [ALFUZOSIN]
2,Compound metabolized,CC(C)NCC(O)COc1ccc(CCOCC2CC2)cc1 (stereo not given) [BETAXOLOL]
3,Compound metabolized,CS(=O)(=O)O.OC(CCN1CCCCC1)(c1ccccc1)c1ccccc1 [PRIDINOL METHANESULFONATE]
4,Compound metabolized,CC(CN1c2ccccc2Sc2ccccc21)N(C)C (stereo not given) [PROMETHAZINE]

# Experiment: as §1, with “WLS-220” for “Z-016”, “human” for “mouse”, “ERS12561769” for “ERS12561815”
# Details: 2 µM
row,Bacterial Biotransformation,SMILES
1,Compound metabolized,COc1cc2nc(N(C)CCCNC(=O)C3CCCO3)nc(N)c2cc1OC (stereo not given) [ALFUZOSIN]
2,Compound NOT metabolized,CC(C)NCC(O)COc1ccc(CCOCC2CC2)cc1 (stereo not given) [BETAXOLOL]
3,Compound metabolized,CS(=O)(=O)O.OC(CCN1CCCCC1)(c1ccccc1)c1ccccc1 [PRIDINOL METHANESULFONATE]
4,Compound metabolized,CC(CN1c2ccccc2Sc2ccccc21)N(C)C (stereo not given) [PROMETHAZINE]

# Experiment: as §1, with “Z-019” for “Z-016”, “rat” for “mouse”, “ERS12561818” for “ERS12561815”
# Details: 2 µM
row,Bacterial Biotransformation,SMILES
1,Compound NOT metabolized,COc1cc2nc(N(C)CCCNC(=O)C3CCCO3)nc(N)c2cc1OC (stereo not given) [ALFUZOSIN]
2,Compound NOT metabolized,CC(C)NCC(O)COc1ccc(CCOCC2CC2)cc1 (stereo not given) [BETAXOLOL]
3,Compound NOT metabolized,CS(=O)(=O)O.OC(CCN1CCCCC1)(c1ccccc1)c1ccccc1 [PRIDINOL METHANESULFONATE]
4,Compound NOT metabolized,CC(CN1c2ccccc2Sc2ccccc21)N(C)C (stereo not given) [PROMETHAZINE]

# Details: human gut metagenome, 24 h, 2 µM
row,Bacterial Biotransformation,SMILES
1,Compound NOT metabolized,COc1cc2nc(N(C)CCCNC(=O)C3CCCO3)nc(N)c2cc1OC (stereo not given) [ALFUZOSIN]
2,Compound NOT metabolized,CC(C)NCC(O)COc1ccc(CCOCC2CC2)cc1 (stereo not given) [BETAXOLOL]
3,Compound NOT metabolized,CS(=O)(=O)O.OC(CCN1CCCCC1)(c1ccccc1)c1ccccc1 [PRIDINOL METHANESULFONATE]
4,Compound NOT metabolized,CC(CN1c2ccccc2Sc2ccccc21)N(C)C (stereo not given) [PROMETHAZINE]

# Experiment: as §1, with “WLS-038” for “Z-016”, “human” for “mouse”, “ERS12561745” for “ERS12561815”
# Details: 2 µM
row,Bacterial Biotransformation,SMILES
1,Compound NOT metabolized,COc1cc2nc(N(C)CCCNC(=O)C3CCCO3)nc(N)c2cc1OC (stereo not given) [ALFUZOSIN]
2,Compound NOT metabolized,CC(C)NCC(O)COc1ccc(CCOCC2CC2)cc1 (stereo not given) [BETAXOLOL]
3,Compound NOT metabolized,CS(=O)(=O)O.OC(CCN1CCCCC1)(c1ccccc1)c1ccccc1 [PRIDINOL METHANESULFONATE]
4,Compound metabolized,CC(CN1c2ccccc2Sc2ccccc21)N(C)C (stereo not given) [PROMETHAZINE]

# Experiment: as §1, with “WLS-073” for “Z-016”, “human” for “mouse”, “ERS12561749” for “ERS12561815”
# Details: 2 µM
row,Bacterial Biotransformation,SMILES
1,Compound metabolized,COc1cc2nc(N(C)CCCNC(=O)C3CCCO3)nc(N)c2cc1OC (stereo not given) [ALFUZOSIN]
2,Compound NOT metabolized,CC(C)NCC(O)COc1ccc(CCOCC2CC2)cc1 (stereo not given) [BETAXOLOL]
3,Compound NOT metabolized,CS(=O)(=O)O.OC(CCN1CCCCC1)(c1ccccc1)c1ccccc1 [PRIDINOL METHANESULFONATE]
4,Compound NOT metabolized,CC(CN1c2ccccc2Sc2ccccc21)N(C)C (stereo not given) [PROMETHAZINE]

# Details: human gut metagenome, 24 h, 2 µM
# Remark: another data set of the same source
row,Bacterial Biotransformation,SMILES
1,Compound NOT metabolized,COc1cc2nc(N(C)CCCNC(=O)C3CCCO3)nc(N)c2cc1OC (stereo not given) [ALFUZOSIN]
2,Compound NOT metabolized,CC(C)NCC(O)COc1ccc(CCOCC2CC2)cc1 (stereo not given) [BETAXOLOL]
3,Compound NOT metabolized,CS(=O)(=O)O.OC(CCN1CCCCC1)(c1ccccc1)c1ccccc1 [PRIDINOL METHANESULFONATE]
4,Compound metabolized,CC(CN1c2ccccc2Sc2ccccc21)N(C)C (stereo not given) [PROMETHAZINE]

# Experiment: as §1, with “Z-017” for “Z-016”, “ERS12561816” for “ERS12561815”
# Details: 2 µM
row,Bacterial Biotransformation,SMILES
1,Compound NOT metabolized,COc1cc2nc(N(C)CCCNC(=O)C3CCCO3)nc(N)c2cc1OC (stereo not given) [ALFUZOSIN]
2,Compound NOT metabolized,CC(C)NCC(O)COc1ccc(CCOCC2CC2)cc1 (stereo not given) [BETAXOLOL]
3,Compound NOT metabolized,CS(=O)(=O)O.OC(CCN1CCCCC1)(c1ccccc1)c1ccccc1 [PRIDINOL METHANESULFONATE]
4,Compound NOT metabolized,CC(CN1c2ccccc2Sc2ccccc21)N(C)C (stereo not given) [PROMETHAZINE]

# Experiment: as §1, with “Z-013” for “Z-016”, “rabbit” for “mouse”, “ERS12561813” for “ERS12561815”
# Details: 2 µM
row,Bacterial Biotransformation,SMILES
1,Compound NOT metabolized,COc1cc2nc(N(C)CCCNC(=O)C3CCCO3)nc(N)c2cc1OC (stereo not given) [ALFUZOSIN]
2,Compound NOT metabolized,CC(C)NCC(O)COc1ccc(CCOCC2CC2)cc1 (stereo not given) [BETAXOLOL]
3,Compound NOT metabolized,CS(=O)(=O)O.OC(CCN1CCCCC1)(c1ccccc1)c1ccccc1 [PRIDINOL METHANESULFONATE]
4,Compound NOT metabolized,CC(CN1c2ccccc2Sc2ccccc21)N(C)C (stereo not given) [PROMETHAZINE]

# Details: human gut metagenome, 24 h, 2 µM
# Remark: another data set of the same source
row,Bacterial Biotransformation,SMILES
1,Compound metabolized,COc1cc2nc(N(C)CCCNC(=O)C3CCCO3)nc(N)c2cc1OC (stereo not given) [ALFUZOSIN]
2,Compound NOT metabolized,CC(C)NCC(O)COc1ccc(CCOCC2CC2)cc1 (stereo not given) [BETAXOLOL]
3,Compound metabolized,CS(=O)(=O)O.OC(CCN1CCCCC1)(c1ccccc1)c1ccccc1 [PRIDINOL METHANESULFONATE]
4,Compound NOT metabolized,CC(CN1c2ccccc2Sc2ccccc21)N(C)C (stereo not given) [PROMETHAZINE]

# Details: human gut metagenome, 24 h, 2 µM
# Remark: another data set of the same source
row,Bacterial Biotransformation,SMILES
1,Compound metabolized,COc1cc2nc(N(C)CCCNC(=O)C3CCCO3)nc(N)c2cc1OC (stereo not given) [ALFUZOSIN]
2,Compound NOT metabolized,CC(C)NCC(O)COc1ccc(CCOCC2CC2)cc1 (stereo not given) [BETAXOLOL]
3,Compound NOT metabolized,CS(=O)(=O)O.OC(CCN1CCCCC1)(c1ccccc1)c1ccccc1 [PRIDINOL METHANESULFONATE]
4,Compound NOT metabolized,CC(CN1c2ccccc2Sc2ccccc21)N(C)C (stereo not given) [PROMETHAZINE]

# Details: human gut metagenome, 24 h, 2 µM
# Remark: another data set of the same source
row,Bacterial Biotransformation,SMILES
1,Compound NOT metabolized,COc1cc2nc(N(C)CCCNC(=O)C3CCCO3)nc(N)c2cc1OC (stereo not given) [ALFUZOSIN]
2,Compound NOT metabolized,CC(C)NCC(O)COc1ccc(CCOCC2CC2)cc1 (stereo not given) [BETAXOLOL]
3,Compound metabolized,CS(=O)(=O)O.OC(CCN1CCCCC1)(c1ccccc1)c1ccccc1 [PRIDINOL METHANESULFONATE]
4,Compound NOT metabolized,CC(CN1c2ccccc2Sc2ccccc21)N(C)C (stereo not given) [PROMETHAZINE]

# Experiment: as §1, with “Z-014” for “Z-016”, “rat” for “mouse”, “ERS12561814” for “ERS12561815”
# Details: 2 µM
row,Bacterial Biotransformation,SMILES
1,Compound NOT metabolized,COc1cc2nc(N(C)CCCNC(=O)C3CCCO3)nc(N)c2cc1OC (stereo not given) [ALFUZOSIN]
2,Compound NOT metabolized,CC(C)NCC(O)COc1ccc(CCOCC2CC2)cc1 (stereo not given) [BETAXOLOL]
3,Compound NOT metabolized,CS(=O)(=O)O.OC(CCN1CCCCC1)(c1ccccc1)c1ccccc1 [PRIDINOL METHANESULFONATE]
4,Compound NOT metabolized,CC(CN1c2ccccc2Sc2ccccc21)N(C)C (stereo not given) [PROMETHAZINE]

# Details: human gut metagenome, 24 h, 2 µM
# Remark: another data set of the same source
row,Bacterial Biotransformation,SMILES
1,Compound metabolized,COc1cc2nc(N(C)CCCNC(=O)C3CCCO3)nc(N)c2cc1OC (stereo not given) [ALFUZOSIN]
2,Compound metabolized,CC(C)NCC(O)COc1ccc(CCOCC2CC2)cc1 (stereo not given) [BETAXOLOL]
3,Compound metabolized,CS(=O)(=O)O.OC(CCN1CCCCC1)(c1ccccc1)c1ccccc1 [PRIDINOL METHANESULFONATE]
4,Compound metabolized,CC(CN1c2ccccc2Sc2ccccc21)N(C)C (stereo not given) [PROMETHAZINE]

# Experiment: as §1, with “WLS-007” for “Z-016”, “human” for “mouse”, “ERS12561742” for “ERS12561815”
# Details: 2 µM
row,Bacterial Biotransformation,SMILES
1,Compound metabolized,COc1cc2nc(N(C)CCCNC(=O)C3CCCO3)nc(N)c2cc1OC (stereo not given) [ALFUZOSIN]
2,Compound NOT metabolized,CC(C)NCC(O)COc1ccc(CCOCC2CC2)cc1 (stereo not given) [BETAXOLOL]
3,Compound NOT metabolized,CS(=O)(=O)O.OC(CCN1CCCCC1)(c1ccccc1)c1ccccc1 [PRIDINOL METHANESULFONATE]
4,Compound NOT metabolized,CC(CN1c2ccccc2Sc2ccccc21)N(C)C (stereo not given) [PROMETHAZINE]

# Details: human gut metagenome, 24 h, 2 µM
# Remark: another data set of the same source
row,Bacterial Biotransformation,SMILES
1,Compound metabolized,COc1cc2nc(N(C)CCCNC(=O)C3CCCO3)nc(N)c2cc1OC (stereo not given) [ALFUZOSIN]
2,Compound metabolized,CC(C)NCC(O)COc1ccc(CCOCC2CC2)cc1 (stereo not given) [BETAXOLOL]
3,Compound metabolized,CS(=O)(=O)O.OC(CCN1CCCCC1)(c1ccccc1)c1ccccc1 [PRIDINOL METHANESULFONATE]
4,Compound metabolized,CC(CN1c2ccccc2Sc2ccccc21)N(C)C (stereo not given) [PROMETHAZINE]

# Experiment: as §1, with “WLS-086” for “Z-016”, “human” for “mouse”, “ERS12561752” for “ERS12561815”
# Details: 2 µM
row,Bacterial Biotransformation,SMILES
1,Compound metabolized,COc1cc2nc(N(C)CCCNC(=O)C3CCCO3)nc(N)c2cc1OC (stereo not given) [ALFUZOSIN]
2,Compound metabolized,CC(C)NCC(O)COc1ccc(CCOCC2CC2)cc1 (stereo not given) [BETAXOLOL]
3,Compound metabolized,CS(=O)(=O)O.OC(CCN1CCCCC1)(c1ccccc1)c1ccccc1 [PRIDINOL METHANESULFONATE]
4,Compound metabolized,CC(CN1c2ccccc2Sc2ccccc21)N(C)C (stereo not given) [PROMETHAZINE]

# Details: human gut metagenome, 24 h, 2 µM
# Remark: another data set of the same source
row,Bacterial Biotransformation,SMILES
1,Compound NOT metabolized,COc1cc2nc(N(C)CCCNC(=O)C3CCCO3)nc(N)c2cc1OC (stereo not given) [ALFUZOSIN]
2,Compound NOT metabolized,CC(C)NCC(O)COc1ccc(CCOCC2CC2)cc1 (stereo not given) [BETAXOLOL]
3,Compound NOT metabolized,CS(=O)(=O)O.OC(CCN1CCCCC1)(c1ccccc1)c1ccccc1 [PRIDINOL METHANESULFONATE]
4,Compound metabolized,CC(CN1c2ccccc2Sc2ccccc21)N(C)C (stereo not given) [PROMETHAZINE]
